# Several values for one entry are separate records, joined by “and”; a condition that tells them apart may be missing. Equal entries are not always repeated.
# Legend:
# Type in all cases: physicochemical
# [1] = Residual unreacted amustaline by LCMS, Example 1 (treatment container; samples moved to separate containers); conditions: for Residual amustaline levels in pathogen-inactivated whole blood, 21 hr / Residual amustaline levels in pathogen-inactivated whole blood, 24 hr / Residual amustaline levels in pathogen-inactivated whole blood, 27 hr / Residual amustaline levels in pathogen-inactivated whole blood, 30 hr / Residual amustaline levels in pathogen-inactivated whole blood, 33 hr / Residual amustaline levels in pathogen-inactivated whole blood, 36 hr / Residual amustaline levels in pathogen-inactivated whole blood, 42 hr: no transfer, 0.2 mM amustaline, 2.0 mM GSH
# Description: Pathogen inactivated whole blood was prepared with the pathogen inactivation compound, amustaline, and the quencher glutathione (Henschler et al., 2011, Transfus Med Hemother 38:33-42), in a kit of the present disclosure comprising a treatment container and tubing with a 3-way branch for introducing the amustaline/GSH (e.g., a “filter set”) comprising two in line filters for coupling (e.g., connecting) containers (e.g., syringes) of PIC and quencher, and the third branch coupled to (e.g., connected to) a sample diversion pouch (e.g., FIG. 3b). More specifically, four ABO-matched whole blood units containing anticoagulant were pooled and split into 8 half units (225 mL/half unit), added into each of eight treatment bags by connecting the pooled donor blood bag containing the whole blood to the treatment container by way of the tubing and using a tubing welder. Following transfer of the whole blood into the treatment containers, the pooled donor blood bag was removed by sealing and severing the tubing, and the filter set was sterile coupled using a tubing welder to the same input port of the treatment container via the remaining tubing. Amustaline and GSH were added to final concentrations of 0.2 mM and 2.0 mM, respectively. GSH was added first, followed by addition of amustaline, either within 5 minutes of GSH addition or after at least 15 minutes hold time, as indicated in Table 1. The mixtures were incubated at 22° C. (Units 1-4) or 25° C. (Units 5-8), with samples removed at the indicated times for analysis by liquid chromatography-mass spectrometry (LCMS) to determine the level of residual, unreacted amustaline.
# Additionally, 50 mL of the mixture was removed from each of Units 2 and 8 at 24 hr and divided into two 25 mL samples in separate containers to compare storage at 4° C. versus room temperature, and for evaluation of residual amustaline levels at 2, 4, 6 and 8 hours of storage under those conditions (Table 2).
# [2] = Residual unreacted amustaline by LCMS, Example 5 (2-container kits, transfer at 18, 20 or 22 hr); conditions: Units 15-21, 2-container kit, transfer time 22 hr, 22° C.
# Description: A further study was performed to evaluate additional conditions for the preparation of pathogen-inactivated whole blood using amustaline and GSH in 2-container kits of the present disclosure (e.g., FIG. 3b). Amustaline and GSH were added to the whole blood units at 0.2 mM and 2.0 mM final concentrations, respectively, in the first container. […] Following transfer to the second container the mixtures were further incubated at 22° C., with sampling for analysis at 2 hr intervals as shown in Table 6.
# Samples were analyzed by LCMS to determine the level of residual, unreacted amustaline as previously described.
# [3] = Residual unreacted amustaline by LCMS, Example 6 (treatment in blood collection bags); conditions: for Residual amustaline levels in pathogen-inactivated whole blood, 20 hr / Residual amustaline levels in pathogen-inactivated whole blood, 22 hr / Residual amustaline levels in pathogen-inactivated whole blood, 24 hr: 22° C.
# Description: More specifically, whole blood units were collected from donors and treated in either Teruflex (Terumo, BB*AGD506A2) blood collection bags (Units 2-7) or Leucoflex (MacoPharma, LQE7230LD) blood collection bags (Units 9-14) containing anticoagulant and integrated into a kit of the present disclosure. Six ABO-matched whole blood units were pooled and split into a control unit and six test units of ~450 mL each. Control units 1 and 8 used kits described in previous Examples. A filter set as previously described was sterile docked to the whole blood transfer tubing of the container that had been sealed and severed, followed by addition of amustaline and GSH to final concentrations of about 0.2 mM and 2.0 mM, respectively. GSH was added first, followed by addition of amustaline within 30 minutes. The mixtures were then incubated at 22° C. for 20 hr, with samples taken for analysis and transfer of the mixtures to the second integrally connected container for test Units 2-7 and 9-14, followed by further incubation and sampling at 2 hr intervals (i.e., 22 hr, 24 hr) for all Units as shown in Table 7.
# [4] = Units 1-2, amustaline added >15 min after GSH, 22° C. in treatment container
# [5] = Units 3-4, amustaline added <5 min after GSH, 22° C. in treatment container
# [6] = Units 5-6, amustaline added >15 min after GSH, 25° C. in treatment container
# [7] = Units 7-8, amustaline added <5 min after GSH, 25° C. in treatment container
# [8] = Unit 1, control unit (kit of previous Examples, not transferred), collection bag T
# [9] = Unit 8, control unit (kit of previous Examples, not transferred), collection bag M
# [10] = Units 2-7, treated in Teruflex (T) blood collection bag, to second container at 20 hr
# [11] = Units 9-14, treated in Leucoflex (M) blood collection bag, to second container at 20 hr
smiles,measurement,setting,value
O=C(CCNc1c2ccccc2nc2ccccc12)OCCN(CCCl)CCCl [amustaline],"Residual amustaline levels in pathogen-inactivated whole blood, 21 hr",[1]; [4],3.50 nM and 4.09 nM
same,"Residual amustaline levels in pathogen-inactivated whole blood, 21 hr",[1]; [5],3.45 nM and 3.85 nM
same,"Residual amustaline levels in pathogen-inactivated whole blood, 21 hr",[1]; [6],2.91 nM and 3.21 nM
same,"Residual amustaline levels in pathogen-inactivated whole blood, 21 hr",[1]; [7],3.43 nM and 4.15 nM
same,"Residual amustaline levels in pathogen-inactivated whole blood, 24 hr",[1]; [4],2.62 nM and 2.66 nM
same,"Residual amustaline levels in pathogen-inactivated whole blood, 24 hr",[1]; [5],3.04 nM and 3.53 nM
same,"Residual amustaline levels in pathogen-inactivated whole blood, 24 hr",[1]; [6],2.44 nM and 2.58 nM
same,"Residual amustaline levels in pathogen-inactivated whole blood, 24 hr",[1]; [7],2.86 nM and 3.39 nM
same,"Residual amustaline levels in pathogen-inactivated whole blood, 27 hr",[1]; [4],2.27 nM and 3.07 nM
same,"Residual amustaline levels in pathogen-inactivated whole blood, 27 hr",[1]; [5],3.29 nM and 3.7 nM
same,"Residual amustaline levels in pathogen-inactivated whole blood, 27 hr",[1]; [6],2.55 nM and 2.71 nM
same,"Residual amustaline levels in pathogen-inactivated whole blood, 27 hr",[1]; [7],2.74 nM and 3.30 nM
same,"Residual amustaline levels in pathogen-inactivated whole blood, 30 hr",[1]; [4],2.11 nM and 2.95 nM
same,"Residual amustaline levels in pathogen-inactivated whole blood, 30 hr",[1]; [5],2.67 nM and 2.84 nM
same,"Residual amustaline levels in pathogen-inactivated whole blood, 30 hr",[1]; [6],2.04 nM and 2.49 nM
same,"Residual amustaline levels in pathogen-inactivated whole blood, 30 hr",[1]; [7],2.34 nM and 2.59 nM
same,"Residual amustaline levels in pathogen-inactivated whole blood, 33 hr",[1]; [4],2.61 nM and 2.29 nM
same,"Residual amustaline levels in pathogen-inactivated whole blood, 33 hr",[1]; [5],2.16 nM and 2.22 nM
same,"Residual amustaline levels in pathogen-inactivated whole blood, 33 hr",[1]; [6],1.76 nM and 1.47 nM
same,"Residual amustaline levels in pathogen-inactivated whole blood, 33 hr",[1]; [7],1.64 nM and 2.83 nM
same,"Residual amustaline levels in pathogen-inactivated whole blood, 36 hr",[1]; [4],1.62 nM and 1.38 nM
same,"Residual amustaline levels in pathogen-inactivated whole blood, 36 hr",[1]; [5],1.73 nM and 1.41 nM
same,"Residual amustaline levels in pathogen-inactivated whole blood, 36 hr",[1]; [6],1.89 nM and 1.87 nM
same,"Residual amustaline levels in pathogen-inactivated whole blood, 36 hr",[1]; [7],2.28 nM and 1.97 nM
same,"Residual amustaline levels in pathogen-inactivated whole blood, 42 hr",[1]; [4],1.30 nM and 1.35 nM
same,"Residual amustaline levels in pathogen-inactivated whole blood, 42 hr",[1]; [5],1.66 nM and 1.57 nM
same,"Residual amustaline levels in pathogen-inactivated whole blood, 42 hr",[1]; [6],1.62 nM and 1.22 nM
same,"Residual amustaline levels in pathogen-inactivated whole blood, 2 hr","[1]; Units 2 and 8, 25 mL sample removed at 24 hr into separate container, stored at RT, 2 hr of storage","BLOQ (BLOQ = Below Limit of Quantitation (e.g., < 0.75 nM))"
same,"Residual amustaline levels in pathogen-inactivated whole blood, 4 hr","[1]; Units 2 and 8, 25 mL sample removed at 24 hr into separate container, stored at RT, 4 hr of storage","BLOQ (BLOQ = Below Limit of Quantitation (e.g., < 0.75 nM))"
same,"Residual amustaline levels in pathogen-inactivated whole blood, 6 hr","[1]; Units 2 and 8, 25 mL sample removed at 24 hr into separate container, stored at RT, 6 hr of storage","BLOQ (BLOQ = Below Limit of Quantitation (e.g., < 0.75 nM))"
same,residual amustaline after transfer to a different container and storage at room temperature,"[1]; treatment mixtures from Units 2 and 8, transfer to a different container, further storage at room temperature",below the limit of quantitation
same,"Residual amustaline levels in pathogen-inactivated whole blood, 24 hr",[2]; 24 hr,"BLOQ (BLOQ = Below Limit of Quantitation (e.g., <0.75 nM))"
same,"Residual amustaline levels in pathogen-inactivated whole blood, 26 hr",[2]; 26 hr,"BLOQ (BLOQ = Below Limit of Quantitation (e.g., <0.75 nM))"
same,"Residual amustaline levels in pathogen-inactivated whole blood, 20 hr","[3]; 20 hr (at transfer), Units 2-7, treated in Teruflex (T) blood collection bag, to second container at 20 hr",2.12e-09 M and 2.32e-09 M and 1.29e-09 M and 1.62e-09 M and 1.53e-09 M and 1.92e-09 M
same,"Residual amustaline levels in pathogen-inactivated whole blood, 20 hr","[3]; 20 hr (at transfer), Units 9-14, treated in Leucoflex (M) blood collection bag, to second container at 20 hr",1.36e-09 M and 1.32e-09 M and 1.44e-09 M and 1.34e-09 M and 1.49e-09 M and 1.4e-09 M
same,"Residual amustaline levels in pathogen-inactivated whole blood, 20 hr","[3]; 20 hr, Unit 1, control unit (kit of previous Examples, not transferred), collection bag T",2.35e-09 M
same,"Residual amustaline levels in pathogen-inactivated whole blood, 20 hr","[3]; 20 hr, Unit 8, control unit (kit of previous Examples, not transferred), collection bag M",2.62e-09 M
same,"Residual amustaline levels in pathogen-inactivated whole blood, 22 hr",[3]; [8],1.61 nM
same,"Residual amustaline levels in pathogen-inactivated whole blood, 22 hr",[3]; [9],1.93 nM
same,"Residual amustaline levels in pathogen-inactivated whole blood, 22 hr",[3]; [10],"BLOQ (BLOQ = Below Limit of Quantitation (e.g., < 0.75 nM))"
same,"Residual amustaline levels in pathogen-inactivated whole blood, 22 hr",[3]; [11],"BLOQ (BLOQ = Below Limit of Quantitation (e.g., < 0.75 nM))"
same,"Residual amustaline levels in pathogen-inactivated whole blood, 24 hr",[3]; [8],1.81 nM
same,"Residual amustaline levels in pathogen-inactivated whole blood, 24 hr",[3]; [9],1.85 nM
same,"Residual amustaline levels in pathogen-inactivated whole blood, 24 hr",[3]; [10],"BLOQ (BLOQ = Below Limit of Quantitation (e.g., < 0.75 nM))"
same,"Residual amustaline levels in pathogen-inactivated whole blood, 24 hr",[3]; [11],"BLOQ (BLOQ = Below Limit of Quantitation (e.g., < 0.75 nM))"
same,"Residual amustaline levels, Units transferred to the second bag at 20 hr",[3]; Units treated in blood collection bags and transferred to the second bag at 20 hr,below the limit of quantitation

# From US12728186B2, “Methods and kits for preparing pathogen-inactivated whole blood” (priority 2018, dated 2026)
